Reference: PubChem BioAssay AID504522 (The Scripps Research Institute Molecular Screening Center, 2011)
The source made the active and inactive calls. No rule for the calls is given here.

How the values were obtained:
Assay in all cases: ABHD11 anti-target and serine hydrolase off-target inhibition, late-stage follow-up, selectivity assay for LYPLA1 inhibitor project, LC-MS, SILAC, mouse cells (AID 504522)
[1] = tested on: AADACL1; conditions: SILAC ABPP LC-MS, serine hydrolase panel, active compounds read low
[2] = tested on: ABHD10; conditions: SILAC ABPP LC-MS, serine hydrolase panel, active compounds read low
[3] = tested on: ABHD11; conditions: SILAC ABPP LC-MS, serine hydrolase panel, active compounds read low
[4] = tested on: ABHD12; conditions: SILAC ABPP LC-MS, serine hydrolase panel, active compounds read low
[5] = tested on: ABHD6; conditions: SILAC ABPP LC-MS, serine hydrolase panel, active compounds read low
[6] = tested on: ACOT1; conditions: SILAC ABPP LC-MS, serine hydrolase panel, active compounds read low
[7] = tested on: ACOT2; conditions: SILAC ABPP LC-MS, serine hydrolase panel, active compounds read low
[8] = tested on: ACOT7; conditions: SILAC ABPP LC-MS, serine hydrolase panel, active compounds read low
[9] = tested on: APEH; conditions: SILAC ABPP LC-MS, serine hydrolase panel, active compounds read low
[10] = tested on: BAT5; conditions: SILAC ABPP LC-MS, serine hydrolase panel, active compounds read low
[11] = tested on: CTSA; conditions: SILAC ABPP LC-MS, serine hydrolase panel, active compounds read low
[12] = tested on: DDHD1; conditions: SILAC ABPP LC-MS, serine hydrolase panel, active compounds read low
[13] = tested on: DPP4; conditions: SILAC ABPP LC-MS, serine hydrolase panel, active compounds read low
[14] = tested on: DPP7; conditions: SILAC ABPP LC-MS, serine hydrolase panel, active compounds read low
[15] = tested on: DPP8; conditions: SILAC ABPP LC-MS, serine hydrolase panel, active compounds read low
[16] = tested on: DPP9; conditions: SILAC ABPP LC-MS, serine hydrolase panel, active compounds read low
[17] = tested on: ESD; conditions: SILAC ABPP LC-MS, serine hydrolase panel, active compounds read low
[18] = tested on: FAAH; conditions: SILAC ABPP LC-MS, serine hydrolase panel, active compounds read low
[19] = tested on: FAM108B1; conditions: SILAC ABPP LC-MS, serine hydrolase panel, active compounds read low
[20] = tested on: FASN; conditions: SILAC ABPP LC-MS, serine hydrolase panel, active compounds read low
[21] = tested on: IAH1; conditions: SILAC ABPP LC-MS, serine hydrolase panel, active compounds read low
[22] = tested on: LACTB; conditions: SILAC ABPP LC-MS, serine hydrolase panel, active compounds read low
[23] = tested on: LIPA; conditions: SILAC ABPP LC-MS, serine hydrolase panel, active compounds read low
[24] = tested on: LYPLA1; conditions: SILAC ABPP LC-MS, serine hydrolase panel, active compounds read low
[25] = tested on: LYPLA2; conditions: SILAC ABPP LC-MS, serine hydrolase panel, active compounds read low
[26] = tested on: LYPLA3; conditions: SILAC ABPP LC-MS, serine hydrolase panel, active compounds read low
[27] = tested on: PAFAH1B2; conditions: SILAC ABPP LC-MS, serine hydrolase panel, active compounds read low
[28] = tested on: PAFAH1B3; conditions: SILAC ABPP LC-MS, serine hydrolase panel, active compounds read low
[29] = tested on: PARL; conditions: SILAC ABPP LC-MS, serine hydrolase panel, active compounds read low
[30] = tested on: PLA2G6; conditions: SILAC ABPP LC-MS, serine hydrolase panel, active compounds read low
[31] = tested on: PNPLA6; conditions: SILAC ABPP LC-MS, serine hydrolase panel, active compounds read low
[32] = tested on: PNPLA8; conditions: SILAC ABPP LC-MS, serine hydrolase panel, active compounds read low
[33] = tested on: PPME1; conditions: SILAC ABPP LC-MS, serine hydrolase panel, active compounds read low
[34] = tested on: PRCP; conditions: SILAC ABPP LC-MS, serine hydrolase panel, active compounds read low
[35] = tested on: PREPL; conditions: SILAC ABPP LC-MS, serine hydrolase panel, active compounds read low
[36] = biological target: Platelet-activating factor acetylhydrolase 2, cytoplasmic (Mus musculus) (UniProt Q8VDG7); conditions: SILAC ABPP LC-MS, serine hydrolase panel, PAFAH2, active compounds read low
[37] = biological target: Prolyl endopeptidase (Mus musculus) (UniProt Q9QUR6); conditions: SILAC ABPP LC-MS, serine hydrolase panel, PREP, active compounds read low
[38] = tested on: SERHL; conditions: SILAC ABPP LC-MS, serine hydrolase panel, active compounds read low
[39] = tested on: SIAE; conditions: SILAC ABPP LC-MS, serine hydrolase panel, active compounds read low

Sequence of Platelet-activating factor acetylhydrolase 2, cytoplasmic (Mus musculus) (Q8VDG7 whole entry, looked up): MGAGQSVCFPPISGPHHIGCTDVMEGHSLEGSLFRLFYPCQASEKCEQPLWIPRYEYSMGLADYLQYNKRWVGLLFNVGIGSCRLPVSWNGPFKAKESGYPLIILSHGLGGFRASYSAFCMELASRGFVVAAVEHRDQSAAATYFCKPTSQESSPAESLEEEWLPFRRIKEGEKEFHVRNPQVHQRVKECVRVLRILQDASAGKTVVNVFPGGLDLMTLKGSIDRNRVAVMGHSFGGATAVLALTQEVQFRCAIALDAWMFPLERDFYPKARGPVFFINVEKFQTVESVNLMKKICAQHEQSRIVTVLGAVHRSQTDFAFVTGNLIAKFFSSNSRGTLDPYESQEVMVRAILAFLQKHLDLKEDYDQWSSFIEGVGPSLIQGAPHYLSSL
Sequence of Prolyl endopeptidase (Mus musculus) (Q9QUR6 whole entry, looked up): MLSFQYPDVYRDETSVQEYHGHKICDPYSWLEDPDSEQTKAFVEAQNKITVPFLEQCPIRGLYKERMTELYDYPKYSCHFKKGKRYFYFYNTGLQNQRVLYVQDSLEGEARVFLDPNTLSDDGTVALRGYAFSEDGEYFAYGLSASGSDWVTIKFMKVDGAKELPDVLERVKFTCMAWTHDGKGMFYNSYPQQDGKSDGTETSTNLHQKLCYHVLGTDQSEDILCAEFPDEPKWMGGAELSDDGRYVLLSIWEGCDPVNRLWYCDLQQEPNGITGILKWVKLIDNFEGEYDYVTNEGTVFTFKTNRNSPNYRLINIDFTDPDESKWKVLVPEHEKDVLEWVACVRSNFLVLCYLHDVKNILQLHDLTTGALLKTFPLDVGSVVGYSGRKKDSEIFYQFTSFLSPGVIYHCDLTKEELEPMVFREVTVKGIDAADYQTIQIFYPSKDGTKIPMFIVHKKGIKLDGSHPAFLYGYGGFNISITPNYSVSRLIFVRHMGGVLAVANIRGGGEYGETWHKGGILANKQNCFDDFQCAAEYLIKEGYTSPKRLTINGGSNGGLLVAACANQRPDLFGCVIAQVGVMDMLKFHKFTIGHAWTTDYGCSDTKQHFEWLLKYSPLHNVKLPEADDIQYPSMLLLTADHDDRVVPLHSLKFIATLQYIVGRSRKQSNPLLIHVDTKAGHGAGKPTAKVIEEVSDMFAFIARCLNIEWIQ

- SILAC ratio (probe-treated/control) [1]: 1.3 (inactive)
- SILAC ratio (probe-treated/control) [2]: 1.3 (inactive)
- SILAC ratio (probe-treated/control) [3]: 0.02
- SILAC ratio (probe-treated/control) [4]: 1.3 (inactive)
- SILAC ratio (probe-treated/control) [5]: 0.9 (inactive)
- SILAC ratio (probe-treated/control) [6]: 1 (inactive)
- SILAC ratio (probe-treated/control) [7]: 1.1 (inactive)
- SILAC ratio (probe-treated/control) [8]: 1.5 (inactive)
- SILAC ratio (probe-treated/control) [9]: 1.4 (inactive)
- SILAC ratio (probe-treated/control) [10]: 1.5 (inactive)
- SILAC ratio (probe-treated/control) [11]: 1.3 (inactive)
- SILAC ratio (probe-treated/control) [12]: 2 (inactive)
- SILAC ratio (probe-treated/control) [13]: 1 (inactive)
- SILAC ratio (probe-treated/control) [14]: 1.3 (inactive)
- SILAC ratio (probe-treated/control) [15]: 1.5 (inactive)
- SILAC ratio (probe-treated/control) [16]: 1.5 (inactive)
- SILAC ratio (probe-treated/control) [17]: 1.4 (inactive)
- SILAC ratio (probe-treated/control) [18]: 1.5 (inactive)
- SILAC ratio (probe-treated/control) [19]: 1.3 (inactive)
- SILAC ratio (probe-treated/control) [20]: 1.5 (inactive)
- SILAC ratio (probe-treated/control) [21]: 1.4 (inactive)
- SILAC ratio (probe-treated/control) [22]: 1.5 (inactive)
- SILAC ratio (probe-treated/control) [23]: 1.4 (inactive)
- SILAC ratio (probe-treated/control) [24]: 1.5 (inactive)
- SILAC ratio (probe-treated/control) [25]: 1.5 (inactive)
- SILAC ratio (probe-treated/control) [26]: 1.5 (inactive)
- SILAC ratio (probe-treated/control) [27]: 1.6 (inactive)
- SILAC ratio (probe-treated/control) [28]: 1.3 (inactive)
- SILAC ratio (probe-treated/control) [29]: 1.5 (inactive)
- SILAC ratio (probe-treated/control) [30]: 1.4 (inactive)
- SILAC ratio (probe-treated/control) [31]: 1.4 (inactive)
- SILAC ratio (probe-treated/control) [32]: 1.3 (inactive)
- SILAC ratio (probe-treated/control) [33]: 1.5 (inactive)
- SILAC ratio (probe-treated/control) [34]: 1.5 (inactive)
- SILAC ratio (probe-treated/control) [35]: 1.2 (inactive)
- SILAC ratio (probe-treated/control) [36]: 1.3 (inactive)
- SILAC ratio (probe-treated/control) [37]: 1.4 (inactive)
- SILAC ratio (probe-treated/control) [38]: 1.5 (inactive)
- SILAC ratio (probe-treated/control) [39]: 1.5 (inactive)
SMILES: COCC1CCCCN1C(=O)n1ncc(C(O)(c2ccccc2)c2ccccc2)n1 (centres undefined)
